Experimental data reported in patent publication US20100158980A1, “DRUG DELIVERY DEVICES FOR DELIVERY OF THERAPEUTIC AGENTS” (priority 2008, published 2010).
Values after ≈ are worked out from the molar mass of the structure shown. Counter-ions that a name gives are not always drawn.

Assay: physchem
Source text: The active agent may be any active agent suitable to treat the desired condition. […] Examples include, but are not limited to, acetazolamide, dorzolamide HCl, timolol maleate, and ethacrynic acid sodium salt.

Row | solubility class | solubility (aqueous buffer) [µg/mL] | Compound | also measured
1 | high solubility | – | C[C@@H]1C[C@H]2[C@@H]3CCC4=CC(=O)C=C[C@]4(C)[C@@]3(F)[C@@H](O)C[C@]2(C)[C@@]1(O)C(=O)COP(=O)(O)O [dexamethasone sodium phosphate] | –
2 | high solubility | > 1000 | C=C(CC)C(=O)c1ccc(OCC(=O)O)c(Cl)c1Cl [ethacrynic acid sodium salt] | –
3 | moderate solubility | – | O=C(O)CCCCCC[C@@H]1[C@@H](CC[C@@H](O)c2cc3ccccc3s2)[C@H](O)C[C@@H]1O [AR-102 free acid, 7-((1R,2R,3R,5S)-2-((R)-3-(benzo[b]thiophen-2-yl)-3-hydroxypropyl)-3,5-dihydroxycyclopentyl)heptanoic acid] | –
4 | – | < 300 | CC[C@H](C)C(=O)O[C@H]1C[C@@H](C)C=C2C=C[C@H](C)[C@H](CC[C@@H]3C[C@@H](O)CC(=O)O3)[C@H]21 [lovastatin] | –
5 | low solubility | – | CCNC(=O)CCC/C=C\C[C@@H]1[C@@H](/C=C/[C@@H](O)CCc2ccccc2)[C@H](O)C[C@@H]1O [bimatoprost] | –
6 | low solubility | < 300 | C[C@@H]1C[C@H]2[C@@H]3CCC4=CC(=O)C=C[C@]4(C)[C@@]3(F)[C@@H](O)C[C@]2(C)[C@@]1(O)C(=O)CO [dexamethasone] | –

The next lines start with the compound.

Row | Compound | solubility class | solubility (aqueous buffer) [µg/mL] | also measured
7 | CC(C)(C)NC[C@H](O)COc1nsnc1N1CCOCC1 [timolol maleate] | high solubility | > 1000 | –
8 | CC(=O)Nc1nnc(S(N)(=O)=O)s1 [acetazolamide] | – | > 1000 | –
9 | O=C(O)CCC/C=C\C[C@@H]1[C@@H](CC[C@@H](O)CCc2ccccc2)[C@H](O)C[C@@H]1O [latanoprost free acid] | – | – | solubility: 800 µg/mL (≈ 2050 µM)
10 | CCN[C@H]1C[C@H](C)S(=O)(=O)c2sc(S(N)(=O)=O)cc21 [dorzolamide HCl] | high solubility | > 1000 | –
11 | Brc1c(NC2=NCCN2)ccc2nccnc12 [brimonidine free base] | – | – | solubility: 360 µg/mL (≈ 1230 µM)
12 | brimonidine tartrate | – | – | solubility (in water at pH 7.7): 600 µg/mL
